From PMC5399052, “Integrating in vitro data and physiologically based kinetic (PBK) modelling to assess the in vivo potential developmental toxicity of a series of phenols” (Archives of Toxicology, 2016)

Columns and labels:
[1] = rat at GD20; ref Varma and Ramakrishnan [1985]; cited from earlier work
in vivo = details: female, rat GD11, allometrically scaled from GD20 value of Varma and Ramakrishnan [1985], read-out: CLPL, transplacental maternal-foetal clearance rate (converted)
BeWo cells = test: In vitro placental transport study (BeWo b30 transwell)
Description: BeWo cells (passages 28–31) were cultured in DMEM with […] and supplemented with 10% (v/v) heat-inactivated FCS, 2 mM L-glutamine, 10,000 U/ml penicillin and 10 mg/ml streptomycin and maintained in polystyrene cell culture flasks (Corning, Amsterdam, the Netherlands) in a 5% CO2-humidified atmosphere at 37 °C. Cells were harvested after exposure to a trypsin–EDTA solution. Next, the cells were seeded onto Transwell® inserts (0.4-µm pored polycarbonate membrane, 12 mm diameter), with a density of 10^5 cells/cm^2. Cell culture medium (0.5 and 1.5 ml in the apical and basolateral compartment, respectively) was changed daily.
Transport experiments were performed 6 days post-seeding. The transport buffer consisted of HBSS with 30 mg/ml bovine serum albumin (apical compartment) and 10 mg/ml bovine serum albumin (basolateral compartment) representing mid- and late gestational maternal and embryonic/foetal rat plasma albumin levels, respectively (Honda et al. [2008]; Mcmullin et al. [2008]; Yeoh and Morgan [1974]). The transport experiments were performed for the same compounds and according to the same method as described for the Caco-2 transport experiments, except that only cell layers with a TEER value >190 Ω cm^2 were used for the transport experiments. The BeWo transport studies encompassed four independently performed experiments including two replicates in each assay. Samples were analysed by UPLC–PDA (see “Quantification of analytes” section) for the presence of the test compound and possible metabolites. The apparent permeability coefficients were calculated using the same method as described for the Caco-2 transport experiments.

albumin = details: cited from earlier work
Caco-2 cells = test: in vitro; details: Caco-2
Description: Caco-2 cells (passages 37–40) were cultured in DMEM containing 25 mM HEPES (pH 7.4) supplemented with 10% (v/v) heat-inactivated FCS, 4500 mg/l glucose, 2 mM L-glutamine, 1% (v/v) minimal essential medium non-essential amino acids, 10,000 U/ml penicillin and 10 mg/ml streptomycin and maintained in polystyrene cell culture flasks (Corning, Amsterdam, the Netherlands) in a 5% CO2-humidified atmosphere at 37 °C. Cells were harvested after exposure to a trypsin–EDTA solution. Next, the cells were seeded onto Transwell® inserts (0.4 µm pored polycarbonate membrane, 12 mm diameter), at a density of 10^5 cells/cm^2. Cell culture medium (0.5 and 1.5 ml in the apical and basolateral compartment, respectively) was changed every two days.
Transport experiments were performed between day 20 and 23 post-seeding. Prior to the transport experiments, the cell culture medium was removed and cells were equilibrated in HBSS for 30–45 min in a 5% CO2-humidified atmosphere at 37 °C. In these 45 min, the integrity of the cell monolayer was examined by measuring the Trans Epithelial Electrical Resistance (TEER) of the cell layer using a Millicell ERS-2 Volt–Ohm Meter (Millipore, USA). Only cell layers with a TEER value between 500 and 1000 Ω cm^2 were used for the transport experiments. The transport buffer for the apical compartment consisted of HBSS containing 10 mM HEPES (pH 6.5) and 10 mM sodium taurocholate and the transport buffer for the basolateral compartment consisted of HBSS (pH 7.4) with 30 mg/ml bovine serum albumin. At first, 1.5 ml pre-warmed (37 °C) transport buffer was added to the basolateral compartment. Then, the transport experiments were started by adding 0.5 ml pre-warmed transport buffer containing the test compound (100 µM) to the apical compartment. After 60-min incubation in a 5% CO2-humidified atmosphere at 37 °C, a 75 µl sample was taken from the basolateral compartment and then from the apical compartment. Each sample was added to 150 µl ice-cold methanol, vortexed and put on ice immediately. […] Samples were analysed by UPLC–PDA (see “Quantification of analytes” section) for the presence of the test compound and possible metabolites.
TEER values were also measured at the end of the transport experiment, during the first washing step and compared to the TEER values measured before the transport experiment in order to assess toxicity of the test compound to the cell monolayer. […]
The apparent permeability coefficients (P app; cm/s) were calculated using the following algorithm: Papp=ΔQ/Δt/A∗C0 where P app is the apparent permeability coefficient (cm/s), ΔQ/Δt (nmol/s) is the amount of the test compound transported to the receiver chamber in a certain time period, A is the transwell membrane surface area (cm^2) and C 0 is the initial concentration of the test compound in the donor compartment (µM).
In order to assess the validity of the P app calculations for this experiment, the linearity of transport from the apical to the basolateral side was verified by taking samples from the basolateral side at t = 15, 30, 60 and 90 min, at a test concentration of 100 µM. […] The recovery of the test compound in each transport experiment was calculated with a mass balance equation, taking into account the amount of the test compound in the apical and basolateral compartment and the amount in the cells and/or filter of the Transwell® insert.

rat liver microsomes = test: in vitro
Description: The formation of glucuronide metabolites of the p-substituted phenols was investigated in incubations with rat liver microsomes. […] To obtain maximum glucuronidation activity, the microsomes were activated by preincubating the incubation mixture with 0.025 mg/ml alamethicin added from a 200 times concentrated stock solution in methanol, during 15 min on ice (Fisher et al. [2000]). Subsequently, the incubations were started after a 1-min preincubation at 37 °C by addition of the substrate from a 200 times concentrated stock solution in DMSO and incubated in a shaking water bath at 37 °C for 45 min. The reactions were terminated by addition of ice-cold acetonitrile (20% v/v). In the blank incubation mixtures, UDPGA was omitted. Samples were analysed by UPLC–PDA (see “Quantification of analytes” section). No reference standards of the glucuronide metabolites were commercially available. […] At first, retention times from the UPLC–PDA chromatograms of the parent compound of the blank incubation were compared with the retention times of newly appearing peaks in chromatograms of the incubation mixtures, as the glucuronide conjugates are expected to elute earlier compared with their parent compounds due do their increased hydrophilicity. […] For this purpose, a volume of 10 µl of the incubation mixture of the glucuronidation assay (that was not terminated by the addition of ice-cold acetonitrile) was added to 90 µl of 200 mM potassium phosphate (pH 6.2). Then, 4 µl of glucuronidase (200 units/ml) was added, and the mixtures were incubated for 60 min in a shaking water bath at 37 °C. The reactions were terminated by addition of ice-cold acetonitrile (20% v/v) and were put on ice. Control samples were treated under the same conditions, but without glucuronidase.
The conditions of the incubation assays were optimised to obtain linear reaction rates with respect to incubation time and protein concentration and non-limiting cofactor levels were applied. […] To obtain maximum glucuronidation activity, the microsomes were activated by preincubating the incubation mixture with 0.025 mg/ml alamethicin added from a 200 times concentrated stock solution in methanol, during 15 min on ice (Fisher et al. [2000]).
Kinetic constants for the glucuronidation of the p-substituted phenols were derived by fitting the data to the standard Michaelis–Menten equation; v=Vmax∗S/Km+[S] in which [S] represents the substrate concentration, V max the maximum velocity and K m the Michaelis–Menten constant for the formation of the glucuronide metabolites. Data analysis was accomplished using GraphPad Prism 5.0 software (GraphPad, San Diego, CA, USA). […] The in vivo K m value was assumed to be the same to the in vitro K m value.
Samples from the BeWo and Caco-2 transport experiments were centrifuged at 13,000 rpm at 5 °C for 15 min. Next 7.5 µl of the supernatant of each sample was analysed by UPLC (Waters Acquity). Samples from the glucuronidation assays were centrifuged at 15,000 rpm at 5 °C for 5 min. […] All samples, except those from transport studies with fluorescein, were analysed on a Waters BEH C18 1.7 µm column, 2.1 × 50 mm, with nanopure water (0.1% TFA) (A) and pure acetonitrile (B) applying a gradient elution. The start condition was 100:0 (A:B), changing to 90:10 from 1 to 2 min, then to 10:90 from 2 to 4 min (or from 2 to 3 min when analysing samples for p-heptyloxyphenylglucuronide), remaining at this ratio for 0.5 min and then rapidly declining to the start condition. The flow rate was 0.6 ml/min.

[2] = without cells; ref Strikwold et al. [2012]; cited from earlier work
whole embryo culture = details: cited from earlier work

Cc1cc(=O)n(-c2ccccc2)n1C [Antipyrine, antipyrine]
Transplacental clearance value [1]: 7.47 mL/min/kg
clearance (in vivo): 3 mL/min

O=C1OC2(c3ccc(O)cc3Oc3cc(O)ccc32)c2ccccc21 [fluorescein, reference compound]
P app / transport fold lower than antipyrine (BeWo cells; BeWo): 11 fold

CCCCCCCOc1ccc(O)cc1 [p-Heptyloxyphenol, p-heptyloxyphenol]
Fraction bound to albumin (albumin): 0.99
ka, predicted oral absorption coefficient (Caco-2 cells): 6.34 h⁻¹
Km (rat liver microsomes): 2.1 ± 0.6 µM
Scaled Vmax(app) (rat liver microsomes): 137 µmol/h/g liver
Vmax(app) glucuronidation (± SD) (rat liver microsomes; rat liver microsomes, 10 mM UDPGA, alamethicin activated): 60 ± 4.5 nmol/min/mg microsomal protein
CLPL, predicted rat transplacental clearance (BeWo cells): 0.026 L/h
Concentration in EST culture medium over time [2]: stable
Embryotoxic potency when hepatocytes were added (whole embryo culture): greatly reduced
